Measurements reported in PubChem BioAssay (NCI).
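Cultured in 96-well plates, cells were exposed to test compound for 48 hours across five concentrations. TGI: concentration producing complete growth inhibition.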

How the values were obtained:
Test in all cases: DTP human tumour cell line panel, 48 h
[1] = system: U251 CNS
[2] = system: PC-3 prostate
[3] = system: OVCAR-8 ovarian
[4] = system: SR leukemia
[5] = system: SK-MEL-28 melanoma
[6] = system: HCT-116 colon
[7] = system: CCRF-CEM leukemia
[8] = system: K-562 leukemia
[9] = system: A498 renal
[10] = system: RPMI-8226 leukemia
[11] = system: OVCAR-4 ovarian
[12] = system: A549 NSCLC
[13] = system: RXF 393 renal
[14] = system: SN12C renal
[15] = system: NCI-H460 lung
[16] = system: SNB-75 CNS
[17] = system: MCF7 breast
[18] = system: NCI-H23 lung
[19] = system: KM12 colon
[20] = system: UACC-257 melanoma
[21] = system: NCI/ADR-RES ovarian
[22] = system: HT29 colon
[23] = system: M14 melanoma
[24] = system: OVCAR-5 ovarian
[25] = system: UO-31 renal
[26] = system: UACC-62 melanoma
[27] = system: COLO 205 colon
[28] = system: 786-0 renal
[29] = system: DU-145 prostate
[30] = system: MOLT-4 leukemia
[31] = system: NCI-H522 lung
[32] = system: MDA-N
[33] = system: LOX IMVI melanoma
[34] = system: SNB-19 CNS
[35] = system: SK-MEL-2 melanoma
[36] = system: SW-620 colon
[37] = system: HS 578T breast
[38] = system: MDA-MB-435
[39] = system: EKVX NSCLC
[40] = system: MDA-MB-231 breast
[41] = system: T-47D breast
[42] = system: NCI-H226 lung
[43] = system: SF-539 CNS
[44] = system: TK-10 renal
[45] = system: BT-549 breast
[46] = system: SF-268 CNS
[47] = system: SK-MEL-5 melanoma
[48] = system: HCC-2998 colon
[49] = system: CAKI-1 renal
[50] = system: HCT-15 colon
[51] = system: OVCAR-3 ovarian
[52] = system: HL-60(TB) leukemia
[53] = system: MALME-3M melanoma
[54] = system: SK-OV-3 ovarian
[55] = system: HOP-62 NSCLC
[56] = system: SF-295 CNS
[57] = system: ACHN renal
[58] = system: IGROV1 ovarian
[59] = system: HOP-92 NSCLC

SMILES: O=c1[nH][nH]c(=O)n1Cc1cccc(Cn2c(=O)[nH][nH]c2=O)c1
- TGI [1]: > 100 µM
- TGI [2]: > 100 µM
- TGI [3]: > 100 µM
- TGI [4]: > 100 µM
- TGI [5]: > 100 µM
- TGI [6]: > 100 µM
- TGI [7]: > 100 µM
- TGI [8]: > 100 µM
- TGI [9]: > 100 µM
- TGI [10]: > 100 µM
- TGI [11]: > 100 µM
- TGI [12]: > 100 µM
- TGI [13]: > 100 µM
- TGI [14]: > 100 µM
- TGI [15]: > 100 µM
- TGI [16]: > 100 µM
- TGI [17]: > 100 µM
- TGI [18]: > 100 µM
- TGI [19]: > 100 µM
- TGI [20]: > 100 µM
- TGI [21]: > 100 µM
- TGI [22]: > 100 µM
- TGI [23]: > 100 µM
- TGI [24]: > 100 µM
- TGI [25]: > 100 µM
- TGI [26]: > 100 µM
- TGI [27]: > 100 µM
- TGI [28]: > 100 µM
- TGI [29]: > 100 µM
- TGI [30]: > 100 µM
- TGI [31]: > 100 µM
- TGI [32]: > 100 µM
- TGI [33]: > 100 µM
- TGI [34]: > 100 µM
- TGI [35]: > 100 µM
- TGI [36]: > 100 µM
- TGI [37]: > 100 µM
- TGI [38]: > 100 µM
- TGI [39]: > 100 µM
- TGI [40]: > 100 µM
- TGI [41]: > 100 µM
- TGI [42]: > 100 µM
- TGI [43]: > 100 µM
- TGI [44]: > 100 µM
- TGI [45]: > 100 µM
- TGI [46]: > 100 µM
- TGI [47]: > 100 µM
- TGI [48]: > 100 µM
- TGI [49]: > 100 µM
- TGI [50]: > 100 µM
- TGI [51]: > 100 µM
- TGI [52]: > 100 µM
- TGI [53]: > 100 µM
- TGI [54]: > 100 µM

SMILES: CC1=C(C(=O)OCc2ccncc2)C(C2=C(C)SCCS2)C(C(=O)OCc2ccncc2)=C(C)N1
- TGI [55]: 58.6 µM
- TGI [1]: 33.2 µM
- TGI [2]: 52.4 µM
- TGI [56]: 38 µM
- TGI [3]: > 100 µM
- TGI [4]: > 100 µM
- TGI [5]: 34 µM
- TGI [6]: 32.2 µM
- TGI [7]: 59.8 µM
- TGI [8]: 59.2 µM
- TGI [57]: > 100 µM
- TGI [11]: > 100 µM
- TGI [12]: > 100 µM
- TGI [13]: 27.4 µM
- TGI [14]: 70.6 µM
- TGI [15]: 73.5 µM
- TGI [16]: 66.6 µM
- TGI [17]: 52 µM
- TGI [18]: 76.5 µM
- TGI [19]: 47.5 µM
- TGI [20]: 50.1 µM
- TGI [21]: > 100 µM
- TGI [22]: 40 µM
- TGI [23]: 71 µM
- TGI [24]: > 100 µM
- TGI [25]: 37.9 µM
- TGI [26]: 73.6 µM
- TGI [27]: > 100 µM
- TGI [28]: > 100 µM
- TGI [29]: > 100 µM
- TGI [30]: 49.2 µM
- TGI [31]: 54 µM
- TGI [32]: 72.8 µM
- TGI [33]: 35.8 µM
- TGI [58]: > 100 µM
- TGI [34]: 87.5 µM
- TGI [36]: 64.6 µM
- TGI [37]: 58.3 µM
- TGI [38]: 38.9 µM
- TGI [39]: > 100 µM
- TGI [40]: 91.9 µM
- TGI [41]: 42.8 µM
- TGI [42]: 42.7 µM
- TGI [43]: 33 µM
- TGI [44]: > 100 µM
- TGI [45]: 42.2 µM
- TGI [59]: 31.5 µM
- TGI [46]: > 100 µM
- TGI [47]: 28.6 µM
- TGI [49]: > 100 µM
- TGI [50]: 64.7 µM
- TGI [51]: 38.8 µM
- TGI [52]: 79.3 µM
- TGI [54]: 88 µM

SMILES: O=C(CN=C(CN(c1ccccc1)c1ccccc1)Oc1c(Cl)cc(Cl)cc1Cl)N1c2ccccc2Sc2ccccc21
- TGI [55]: > 100 µM
- TGI [1]: > 100 µM
- TGI [2]: > 100 µM
- TGI [56]: > 100 µM
- TGI [3]: > 100 µM
- TGI [4]: > 100 µM
- TGI [5]: > 100 µM
- TGI [6]: > 100 µM
- TGI [7]: > 100 µM
- TGI [57]: > 100 µM
- TGI [10]: > 100 µM
- TGI [11]: > 100 µM
- TGI [12]: > 100 µM
- TGI [13]: 27.4 µM
- TGI [14]: > 100 µM
- TGI [15]: > 100 µM
- TGI [16]: > 100 µM
- TGI [17]: > 100 µM
- TGI [18]: > 100 µM
- TGI [19]: > 100 µM
- TGI [20]: > 100 µM
- TGI [21]: > 100 µM
- TGI [22]: > 100 µM
- TGI [23]: > 100 µM
- TGI [24]: > 100 µM
- TGI [26]: > 100 µM
- TGI [27]: > 100 µM
- TGI [28]: > 100 µM
- TGI [29]: > 100 µM
- TGI [30]: > 100 µM
- TGI [31]: > 100 µM
- TGI [32]: > 100 µM
- TGI [58]: > 100 µM
- TGI [34]: > 100 µM
- TGI [36]: > 100 µM
- TGI [37]: > 100 µM
- TGI [38]: > 100 µM
- TGI [39]: > 100 µM
- TGI [40]: > 100 µM
- TGI [41]: > 100 µM
- TGI [42]: > 100 µM
- TGI [43]: > 100 µM
- TGI [44]: > 100 µM
- TGI [45]: > 100 µM
- TGI [59]: 57.2 µM
- TGI [46]: > 100 µM
- TGI [47]: > 100 µM
- TGI [48]: > 100 µM
- TGI [50]: > 100 µM
- TGI [51]: > 100 µM
- TGI [52]: > 100 µM
- TGI [53]: > 100 µM
- TGI [54]: > 100 µM

SMILES: O=C1c2scc(-c3ccccc3)c2-n2cccc21
- TGI [55]: 38.1 µM
- TGI [1]: 27.7 µM
- TGI [2]: 41.2 µM
- TGI [56]: 36 µM
- TGI [3]: 27.4 µM
- TGI [4]: 47.2 µM
- TGI [5]: 28.8 µM
- TGI [6]: 26.2 µM
- TGI [7]: 60.8 µM
- TGI [57]: > 100 µM
- TGI [9]: 5.02 µM
- TGI [10]: 34.1 µM
- TGI [11]: > 100 µM
- TGI [12]: 42.6 µM
- TGI [13]: 29.9 µM
- TGI [14]: 74.8 µM
- TGI [15]: > 100 µM
- TGI [16]: 27.2 µM
- TGI [17]: 52.9 µM
- TGI [19]: 27.3 µM
- TGI [20]: > 100 µM
- TGI [21]: 35.4 µM
- TGI [22]: 25.3 µM
- TGI [23]: 33.3 µM
- TGI [24]: 48 µM
- TGI [25]: > 100 µM
- TGI [26]: 55.6 µM
- TGI [27]: 31.7 µM
- TGI [28]: 28 µM
- TGI [29]: > 100 µM
- TGI [30]: 37.9 µM
- TGI [31]: 25.2 µM
- TGI [32]: 50 µM
- TGI [33]: 27.9 µM
- TGI [58]: 17.7 µM
- TGI [34]: 42 µM
- TGI [35]: 30.7 µM
- TGI [36]: 34.1 µM
- TGI [37]: 24 µM
- TGI [38]: 29 µM
- TGI [39]: 25.4 µM
- TGI [40]: 31.4 µM
- TGI [41]: 80.9 µM
- TGI [42]: 25 µM
- TGI [44]: > 100 µM
- TGI [45]: > 100 µM
- TGI [46]: 30.3 µM
- TGI [47]: 30 µM
- TGI [48]: 59.5 µM
- TGI [49]: 31.9 µM
- TGI [50]: > 100 µM
- TGI [51]: 38.1 µM
- TGI [53]: 30.7 µM
- TGI [54]: 44.7 µM

SMILES: COc1ccc(Nc2nn3c(=O)c4c(C)c(C)sc4nc3s2)cc1
- TGI [55]: 76.8 µM
- TGI [1]: > 100 µM
- TGI [2]: > 100 µM
- TGI [56]: > 100 µM
- TGI [3]: > 100 µM
- TGI [4]: > 100 µM
- TGI [5]: > 100 µM
- TGI [6]: 60.5 µM
- TGI [7]: > 100 µM
- TGI [8]: > 100 µM
- TGI [57]: > 100 µM
- TGI [11]: 48.3 µM
- TGI [12]: 38.5 µM
- TGI [13]: 36.7 µM
- TGI [14]: > 100 µM
- TGI [15]: > 100 µM
- TGI [16]: 49.8 µM
- TGI [17]: > 100 µM
- TGI [18]: 46.9 µM
- TGI [19]: > 100 µM
- TGI [20]: > 100 µM
- TGI [21]: > 100 µM
- TGI [22]: > 100 µM
- TGI [23]: > 100 µM
- TGI [24]: > 100 µM
- TGI [25]: 35.3 µM
- TGI [26]: > 100 µM
- TGI [27]: > 100 µM
- TGI [28]: 51 µM
- TGI [29]: 34.5 µM
- TGI [30]: > 100 µM
- TGI [31]: 67.1 µM
- TGI [32]: > 100 µM
- TGI [33]: > 100 µM
- TGI [58]: > 100 µM
- TGI [34]: > 100 µM
- TGI [35]: > 100 µM
- TGI [36]: > 100 µM
- TGI [37]: > 100 µM
- TGI [38]: > 100 µM
- TGI [40]: > 100 µM
- TGI [41]: 63.5 µM
- TGI [42]: > 100 µM
- TGI [43]: > 100 µM
- TGI [44]: 78.8 µM
- TGI [45]: > 100 µM
- TGI [59]: 69.2 µM
- TGI [46]: > 100 µM
- TGI [47]: > 100 µM
- TGI [49]: > 100 µM
- TGI [50]: > 100 µM
- TGI [51]: 78.8 µM
- TGI [52]: > 100 µM
- TGI [53]: 89 µM
- TGI [54]: > 100 µM
